The results in this text go back to a melting point compilation (Tetko et al.; mined from patent text by program, amines drawn as free bases though some values may be those of a salt).

Consider `COc1ccc(N2Cc3nc(C(=O)O)nn3-c3cccnc32)cc1`, for which the melting point was 190 to 196 °C.

`CCCCc1nc2c(N)nc3ccccc3c2o1` had a melting point of 96 to 98 °C.

`COc1ccc(CC(=O)c2ccccc2)cc1OC` came in with a melting point of 80 to 81 °C.

`CN1CCN(c2ncnc3oc(-c4ccc(N)cc4)c(-c4ccc(F)cc4)c23)CC1` showed a melting point of 214 to 215 °C.

Compound `COc1ccc(C(O)CN2CCN(C(c3ccccc3)c3ccccc3)CC2)cc1OC` (stereo not drawn) had a melting point of 85 °C.

As to `C[C@@H]1Cc2ccsc2[C@H](C)N1CCNC(=O)c1ccc(NC(=O)C(F)(F)F)cc1` (relative stereo), the melting point lay in the range of 174 to 177 °C.

Take `COC(=O)CN1CCc2[nH]c(=O)n3nc(-c4ccccc4F)nc3c2C1`: the melting point fell in the range of 265 to 266 °C.

Consider `C=C1C(=O)c2ccccc2OC1c1cccc([N+](=O)[O-])c1` (stereo not drawn), for which the melting point lay in the range of 131 to 132 °C.

As to `CCN1c2ncccc2C(=O)N(C)c2ccc(-c3c[nH]c(C(C)=O)c3)nc21`, the melting point lay within 219 to 220 °C.

`N[C@@H](Cc1ccccc1)C(O)(c1ccccc1)c1ccccc1` yielded a melting point of 141 to 142 °C.

Take `CCCCOC(=O)Cc1ccc(N[C@@H](CCC(N)=O)C(=O)O)cc1`: the melting point lay within 177 to 179 °C.

The compound `O=S(=O)(C(=CNc1ccccc1)S(=O)(=O)c1ccccc1)c1ccccc1` had a melting point of 199 to 202 °C.

`COC(=O)c1ccc(C=C2CCn3c2nc2cc([N+](=O)[O-])ccc2c3=O)cc1`: the melting point was 264 to 266 °C.

For `COc1ccc(/C=C/C=C/C(=O)Oc2ccc([N+](=O)[O-])cc2)cc1`, the melting point lay in the range of 176 to 177 °C.

Take `Nc1nc(C(=Cc2cccc3ccccc23)C(=O)O)cs1`: the melting point is 220 °C.

For `CCCCCCOC(=O)COc1ccc(F)c(C(N)=O)c1F`, the melting point is 108 °C.

`FC(F)Oc1cc(Oc2ccnc(-c3cnccn3)n2)ccn1` came in with a melting point of 128 to 129 °C.

As to `O=[N+]([O-])c1ccc(Oc2ccc(Oc3ccc([N+](=O)[O-])c(O)c3)cc2)cc1O`, the melting point was in the range of 242 to 245 °C.

Take `CC(C)(C)Nc1c(NCc2ccc(Cl)c(Cl)c2)c(=O)c1=O`: the melting point fell in the range of 302 to 303 °C.

Take `COc1ccccc1CNc1ccc2cc(Nc3nnn(C(C)(C)C)n3)ccc2n1`: the melting point turned out to be 156 °C.

For `COc1cc(C=O)ccc1NC(C)=O`, the melting point amounted to 145 °C.

In turn, `C(=C\c1nc(COc2ccc(CCCn3ccnc3)cc2)cs1)/c1ccccc1` had a melting point of 129 to 130 °C.

The compound `CCOc1cccnc1CSCCNC(=C[N+](=O)[O-])NC` had a melting point of 130 to 131 °C.

As for `CCOC(=O)c1ccc2c(c1)N(CCN(C)C)C(=O)c1cc(C(C)C)cc(C(C)C)c1O2`, the melting point was 97 to 98 °C.

`CCOC(=O)N1CCN(Cc2ccc(O)c3ncccc23)CC1` registered a melting point of 92 to 93 °C.

`COC(=O)c1cccc(-c2ccc(OC)c3c2CC(C)(C)O3)c1` came in with a melting point of 89 to 91 °C.

In turn, `Cc1cc(C(=O)NC2=NC(C)CC2(c2ccccc2)c2ccccc2)[nH]n1` (stereo not drawn) displayed a melting point of 221 to 223 °C.

For the compound `CN(C)C=CC(=O)CC(C)(C)C`, the melting point is 72 to 74 °C.

Compound `CC(C)CCn1cc([N+](=O)[O-])cc1C(=O)Nc1cc(C(=O)NCCCN2CCOCC2)n(C)c1` came in with a melting point of 155 to 158 °C.

Take `CC(=O)Nc1sc(C(=O)OCc2ccccc2)c(C)c1C(=O)OC(C)(C)C`: the melting point was 157 to 158 °C.

For `CC(C)(C)c1ccccc1-n1cnnc1C(F)(F)F`, the melting point is 120 °C.

Regarding `CC(C)CC(NC(=O)Cc1ccc2ccccc2c1)C(=O)NC(Cc1ccccc1)C(=O)CSCc1ccco1` (stereo not drawn), the melting point was in the range of 123 to 125 °C.

Turning to `N=C(NO)c1ccc(-c2ccc(-c3ccc(C(=N)NO)o3)cc2)o1`, the melting point is above 300 °C.

As for `CC1CCC(=NNc2ccccc2)c2ncc(C(N)=O)c(=O)n21` (stereo not drawn), the melting point lay within 246 to 247 °C.

In turn, `CC(=O)Nc1ccc(NC(=O)c2ccc(O)cc2)cc1` showed a melting point of 160 °C.

`CCC1(C(=O)O)c2ccccc2Oc2ccccc21`: the melting point fell in the range of 175 to 176 °C.

The compound `CCc1nnc(NC(=O)C(c2ccccc2)c2ccccc2)o1` yielded a melting point of 123 to 125 °C.

For the compound `Cc1ccnc(CSc2nc(C)cc(=O)[nH]2)c1`, the melting point was 157 to 158 °C.

In turn, `CCCc1c(OCCCOc2ccc(Cl)cc2)ccc2c1OC(CCC(=O)O)(CCC(=O)O)CC2=O` had a melting point of 133 to 134 °C.

Compound `CCN(CCCN1C(=O)c2cc(OC)ccc2C(C)(C)C1=O)CCCN1C(=O)c2cc(OC)ccc2C(C)(C)C1=O` came in with a melting point of 141 to 143 °C.

As to `O=C(O)CCCCCc1nn(-c2ccc(Cl)cc2)c2c1CCC2`, the melting point fell in the range of 99 to 101 °C.

In the case of `CCC(=O)Nc1nc2c(s1)-c1nc(-c3ccccc3)ncc1CC2`, the melting point is 274 to 275 °C.

Take `C=CCOc1cc(-c2cc(=O)c3c(OC)cc(OCC4=COC(C)(C)O4)cc3o2)ccc1OC`: the melting point stood at 156 °C.

The compound `Cc1ncc(CCCOc2c(C)cc(-c3nnn(C)n3)cc2C)s1` returned a melting point of 86 to 88 °C.

The compound `Cc1ccc(S(=O)(=O)OCCc2cc3c4ccccc4[nH]c(=O)n3n2)cc1` came in with a melting point of 194 to 196 °C.

Compound `CCCCc1c(C(=O)c2ccc(O)cc2)c2cc([N+](=O)[O-])ccc2n1C` showed a melting point of 198 °C.

On to `CCCCc1nn(-c2ccccc2C(F)(F)F)c(=O)n1Cc1ccc(-c2ccccc2S(=O)(=O)NS(=O)(=O)C(F)(F)F)cc1`, for which the melting point was in the range of 132 to 134 °C.

Compound `O=C1C=C(c2ccccc2O)CC1` had a melting point of 162 to 165 °C.

`Cc1ncc2c(c1O)COC2(C)C` showed a melting point of 247 °C.

On to `Cc1c[nH]c(=O)nc1-n1cncn1`, for which the melting point fell in the range of 258 to 264 °C.

In the case of `O=C(C=Cc1ccc(F)cc1)N1CCOCC1`, the melting point was in the range of 136 to 137 °C.

For the compound `CC1(C)C(=O)N(c2ccc(C#N)c(C(F)(F)F)c2)C(=O)N1CCCO`, the melting point lay in the range of 131 to 132 °C.

As to `Cc1cccc(C=CCC(CCC(=O)O)(C(=O)C=Cc2ccc(Cl)cc2)c2ccccc2)c1` (stereo not drawn), the melting point lay within 135 to 144 °C.

Consider `COc1ccc(CN2CCN(C3=NC4(C=CC(=O)C=C4)C(c4ccc(OC)cc4)=C3)CC2)cc1`, for which the melting point was 142 °C.

As for `CC1Cc2ccc(Cl)cc2C(c2ccc(N)cc2)=NN1C(=O)C(F)(F)F` (stereo not drawn), the melting point lay in the range of 165 to 167 °C.

As to `Cc1ccc(S(=O)(=O)c2cc3c(c(S(=O)(=O)NCCc4ccccc4F)c2)CCCC3)cc1`, the melting point was 55 to 60 °C.

For the compound `CC(=O)n1c(=O)n(-c2ccc(Cl)cc2)c(=O)n1C(C)=O`, the melting point fell in the range of 148 to 150 °C.

As for `N#CC1(C#N)C2CC(C3OC32)C1(Cl)Cl` (stereo not drawn), the melting point stood at 229 °C.

Compound `COc1cc(O)c(N2CCN(CCN3CC(C)(C)C3)C2=O)cc1Cl` came in with a melting point of 138 °C.

Take `CCOC(=O)CCCOc1ccc2c(c1)C[C@@H](NC(=O)OC(C)(C)C)CC2`: the melting point was in the range of 96 to 98 °C.

Regarding `CCN(CC)C(=O)n1c(SC(F)(F)C(F)F)nc(-c2ccccc2)c1-c1ccccc1`, the melting point is 108 to 109 °C.

`CS(=O)(=O)N1CCC(CCC(=O)c2ccc3c(c2)CCN(Cc2ccccc2)CC3)CC1`: the melting point was 134 to 137 °C.

Compound `Cc1cc(NC(=O)c2c(C(F)(F)F)nc3c(C(F)(F)F)cccc3c2O)no1` yielded a melting point of 216 °C.

`CCOCc1nc2c(N)ncc(C)c2n1CCCCNS(C)(=O)=O` gave a melting point of 173 to 175 °C.

With `O=C1CC(c2cccc([N+](=O)[O-])c2)=Nc2ccc(C#Cc3ccccc3)cc2N1`, the melting point was 228 to 229 °C.

As to `CCCCC(CC)n1nnc2c(Nc3c(Br)cc(OC)cc3OC)nc(C)cc21` (stereo not drawn), the melting point is 127 to 128 °C.

In the case of `C[C@@H](CO)Oc1ccc2cc(Br)ccc2c1`, the melting point was 71 to 72 °C.

In turn, `C=C(Nc1nc(-c2ccccc2)c(-c2nc3ccccc3c(=O)n2-c2ccccc2)s1)c1ccco1` had a melting point of 271 to 272 °C.

With `Cc1cccc(Cl)c1S(=O)(=O)NC(=O)n1nc(Br)n(N(C)C)c1=O`, the melting point is 163 °C.

On to `CC[C@]12CC[C@H]3[C@@H](CC(C)C4=CC(=O)CC[C@@H]43)[C@@H]1CCC2=O` (stereo partly drawn), for which the melting point was in the range of 141 to 149 °C.

In turn, `CN(Cc1ccco1)C(=O)C=C1OC(C)(C)OC1=O` returned a melting point of 83 to 86 °C.

Compound `CCN(C(=O)c1cc(Cl)c(NC(=O)C(F)(F)F)cc1OC)C1CCN(Cc2ccccc2)CC1` displayed a melting point of 198 to 200 °C.

Compound `Cc1ccc(S(=O)(=O)N2C(C)CN3C(=O)c4ccccc4C32c2ccc(F)cc2)cc1` (stereo not drawn) came in with a melting point of 215 to 217 °C.

In turn, `Cc1cc(C(=O)O)ccc1C1=CC(C)(C)CC(C)(C)C1` yielded a melting point of 118 to 120 °C.

`CS(=O)(=O)c1cc(C(=O)O)cc(Cl)c1Nc1ccccc1`: the melting point lay within 187 to 189 °C.

`COC(=O)C(Cc1ccc(OC)c(OC)c1)NNc1ccc(C)c(C)c1` (stereo not drawn) gave a melting point of 148 to 150 °C.

`N#CCCN1CC(=O)N(CCC#N)CC1=O` showed a melting point of 166 °C.

In turn, `O=C(O)c1ccccc1Oc1ccc(Cl)cc1` came in with a melting point of 114 to 115 °C.

Take `CCN(CC)S(=O)(=O)Oc1ccc2c(c1)CCC1C2CCC2(C)C(O)C(O)CC12` (stereo not drawn): the melting point was 121 to 124 °C.

The compound `CC12CCC3c4ccc(O)cc4CC(Sc4ccc(C=CC(=O)O)cc4)C3C1CCC2O` (stereo not drawn) returned a melting point of 215 to 220 °C.

As to `C#Cc1ccc2c(c1)C(=O)N(C(C)(C)C)CC(=O)N2`, the melting point lay in the range of 216 to 219 °C.

Compound `COC(=O)c1ccc(CC(C)NCC(O)c2ccc(O)c(CO)c2)cc1C(=O)OC` (stereo not drawn) gave a melting point of 124 to 129 °C.

Compound `c1ccc(-c2nsc3nc4ccccc4n23)nc1` returned a melting point of 173 to 174 °C.

`NS(=O)(=O)c1ccc(OCCOc2ccc(C(=O)C(=O)O)cc2)cc1` gave a melting point of 178 to 179 °C.

Regarding `CC(C)(C)OC(=O)NC(O)CCO` (stereo not drawn), the melting point was in the range of 83 to 85 °C.

`Cc1c(-c2cccnc2)n(CCCCCC(=O)O)c2ccc(Cl)cc12` displayed a melting point of 137 to 141 °C.

Compound `C=C1COc2ccc(C(C)=O)cc2C(S(=O)(=O)c2ccccc2)C1` (stereo not drawn) registered a melting point of 124 to 125 °C.

As to `CC1(C)C=C(c2ccccc2)c2cccc3c2N1C(=O)C3=O`, the melting point fell in the range of 210 to 212 °C.

Broadly, the melting point is the temperature, or range, at which the solid turns liquid.
